Patent US10759754B2, “Aminobenzoic acid derivatives for use as anti-inflammatory agents, anti-metastatic agents and/or anticancer agents” (3R VALO, S.E.C., priority 2016, dated 2020)
Entries after “also recorded” stand apart in the source; their conditions may differ.

Tests used:
[1] = tested on: MB49-I tumors; test: Ectopic UBC model, MB49-I tumors implanted in the flank of male mice; format: in vivo; details: i.p. 150 μM during 18 days, tumors recovered day 20
Experimental: Ectopic UBC model. Male C57BL/6J mice (6-8 weeks old), each weighing 15-18 g, were used for the experiments (supplied by Charles River). The mice were housed with free access to food and water on a 12:12 h light:dark cycle with the room temperature maintained at 21° C. MB49 cells, MB49-I cells, and iNOS-deficient MB49-I cells ([…] in 100 μL PBS) were injected subcutaneously (s.c.) into the right flank of the mice. Growth rates of the s.c. tumors were monitored. The size of tumors was determined every 3 days for 24-28 days using a digital caliper and by measuring luciferin luminescence at days 15 and 25 using the IVIS imaging system. A blinded observer measured tumor length and width. The volume of the tumor was calculated from the formula: Length×width2×0.52, where length and width were tumor diameters measured with calipers in mutually perpendicular directions. At a tumor size of approximately 10 mm^3 the mice were divided into different groups. A control group received PBS as treatment. As indicated, other groups were treated at different doses (90, 150 or 300 μM) with an intraperitoneal (i.p.) injection of compounds 4 or 8 every 3-4 days for 18-20 days.^24,27

[2] = tested on: STAT1; test: Western blot of phosphorylated STAT1 in IFNγ-activated RAW 264.7 cells; format: cell-based, murine; details: 90 min pretreatment at 20 and 37.5 μM, 5 ng/mL IFNγ 15 min
Experimental: (§1) Cell signaling studies: THP1-derived human macrophages (750×10^3 cells/mL) and MB49-I cells (500×10^3 cells/mL) were pretreated for 30 min with vehicle (DMSO), compounds 4 and 5, at 10, 25 or 50 μM; and then washed and recovered immediately (t=0 min) or after 30 min of activation with 50 U/mL IFNγ, 25 ng/mL IL6, or 10 ng/mL TNFα. Cell lysates were prepared and analyzed by immunoblotting as described.^21-23,25 Briefly, protein samples were resolved by SDS-PAGE under reducing conditions and transferred onto a PVDF membrane. Blots were first probed with rabbit polyclonal antibodies against phospho-STAT1 (pSTAT1), pSTAT3, or p-IκB (all at 1:2000) overnight at 4° C. Blots were then incubated with HRP-conjugated goat anti-rabbit IgG Ab (1:3000) for 1 h at room temperature. The same blots were stripped and then probed with anti-STAT1 or anti-STAT3 Abs (both at 1:1000). In both cases, probed molecules were visualized using an enhancement chemiluminescence detection kit (Thermo Fisher Scientific).

[3] = tested on: IκB / NFκB signaling pathway; test: Western blot of phosphorylated IκB in LPS-activated RAW 264.7 cells; format: cell-based, murine; details: 90 min pretreatment at 20 and 37.5 μM, 100 ng/mL LPS 15 min
[4] = tested on: human macrophages THP-1 cells; details: 90 min pretreatment, counted after 24 h
[5] = tested on: MB49-I cells; test: LPS/IFNγ-induced NO production in MB49-I cells; format: cell-based, murine
Experimental: Evaluation of NO and Urea production by chemical methods. The MB49-I cells and the J774A.1 cells (25×10^3 cells/well) were grown and pretreated, as indicated, with various anti-inflammatory derivatives, precursors and mono-functional derivatives for a period of 3 h. […] NO production was measured using the Griess reagent method as previously described.^27 This method involves the detection of nitrite ions (NO2^−) formed by the spontaneous oxidation of NO under physiological conditions. According the manufacture procedure (Life Technologies; # G-7921), equal volumes of sulfanilic acid and N-(1-naphthyl)ethylenediamine are mixed together to form the Griess reagent. In the presence of NO2^−, sulfanilic acid is converted to a diazonium salt, which in turn is coupled to N-(1-naphthyl)ethylenediamine to produce a pink coloration that is measured with a spectrophotometer (Biotek, synergy HT) at 548 nm. In the same manner, urea synthesis through arginase-1 activity was measured using commercially available kit.

[6] = tested on: murine macrophages RAW 264.7 cells; details: 90 min pretreatment, counted after 24 h
[7] = tested on: murine UBC MB49-I cells; details: 90 min pretreatment, counted after 24 h
[8] = tested on: UBC cell line MB49-I; test: IFNγ/TNFα-induced NO production (Griess) in MB49-I cells; format: cell-based, murine; details: 10 and 50 μM
Experimental: (§2) Evaluation of NO and Urea production by chemical methods. The MB49-I cells and the J774A.1 cells (25×10^3 cells/well) were grown and pretreated, as indicated, with various anti-inflammatory derivatives, precursors and mono-functional derivatives for a period of 3 h. Afterwards the cells were washed twice with 10% FBS RPMI-1640 and then activated to produce NO for a period of 24 h with cytokines INFγ and TNFα. NO production was measured using the Griess reagent method as previously described.^27 This method involves the detection of nitrite ions (NO2^−) formed by the spontaneous oxidation of NO under physiological conditions. According the manufacture procedure (Life Technologies; # G-7921), equal volumes of sulfanilic acid and N-(1-naphthyl)ethylenediamine are mixed together to form the Griess reagent. In the presence of NO2^−, sulfanilic acid is converted to a diazonium salt, which in turn is coupled to N-(1-naphthyl)ethylenediamine to produce a pink coloration that is measured with a spectrophotometer (Biotek, synergy HT) at 548 nm. In the same manner, urea synthesis through arginase-1 activity was measured using commercially available kit.

[9] = tested on: STAT1; test: Western blot of phosphorylated STAT1 in IFNγ-activated human macrophages; format: cell-based; details: human macrophages pretreated 30 min at 10 and 50 μM; 30 min activation with 50 U/mL IFNγ; hydrochloride
Experimental: as §1

[10] = tested on: MHC-II; test: Flow cytometry of MHC-II surface antigen in IFNγ-activated human macrophages; format: cell-based; details: compound 4 at 10 μM, compound 5 at 25 μM, hydrochloride
Experimental: (§3) Surface antigen expression analysis. To study membrane receptor expression, THP1-derived human macrophages (750×10^4 cells/mL) were pretreated for 3 h with DMSO or compounds 4 and 5, and then left untreated (control) or treated for 48 h with 50 U/mL IFNγ. The expression level of MHC-II and CD40 was evaluated by flow cytometry as described.^21-23

[11] = tested on: CD40; test: Flow cytometry of CD40 surface antigen in IFNγ-activated human macrophages; format: cell-based; details: compound 4 at 10 μM, compound 5 at 25 μM, hydrochloride
Experimental: as §3

[12] = tested on: macrophage-like J774A.1 cells; test: IFNγ/TNFα-induced NO production (Griess) in J774A.1 cells; format: cell-based, murine; details: pretreatment then IFNγ and TNFα, hydrochloride
Experimental: as §2

[13] = tested on: STAT3; test: Western blot of phosphorylated STAT3 in IL6-activated human macrophages; format: cell-based; details: human macrophages pretreated 30 min at 10 and 50 μM; 30 min activation with 25 ng/mL IL6; hydrochloride
Experimental: as §1

## CC(=O)N(NC(=O)c1ccc(N2C(=O)C=CC2=O)cc1)C(C)=O [Compound 8, 4-(2,5-dioxo-2,5-dihydro-pyrrol-1-yl)-benzoic acid N′-diacetyl-hydrazide]
[1]
  tumor volume of muscle-invasive MB49-I tumors: anti-proliferative activity; also recorded: more efficient than compound 4
[2]
  IFNγ-activated STAT1 signaling pathway (ratio p-STAT1/STAT1): more efficient than other compounds
[3]
  LPS-activated NFκB signaling pathway (ratio p-IkB/IkB): efficient to inhibit
[4]
  cytotoxic effect (cell viability): lower than that of compound 4
[5]; 20 and 37.5 μM
  IFNγ/LPS-induced NO production: more efficient than compound 4
[6]
  cytotoxic effect (cell viability): lower than that of compound 4
[7]
  cytotoxic effect (cell viability): lower than that of compound 4

## CC(=O)N(NC(=O)OC(C)(C)C)C(=O)c1ccc(N2C(=O)C=CC2=O)cc1 [Compound 10, N-acetyl-N-[4-(2,5-dioxo-2,5-dihydro-pyrrol-1-yl)-benzoyl]-hydrazinecarboxylic acid tert-butyl ester]
[3]
  LPS-activated NFκB signaling pathway (ratio p-IkB/IkB): efficient to inhibit

## CC(C)(C)OC(=O)NNC(=O)c1ccc(N2C(=O)CCC2=O)cc1 [Compound 12, N′-[4-(2,5-dioxo-pyrrolidin-1-yl)-benzoyl]-hydrazine carboxylic acid tert-butyl ester]
[5]; compound 4 at 30 μM, compound 12 at 10, 20, 37.5 and 50 μM
  LPS/IFNγ-induced NO synthesis: lost its anti-inflammatory activity; also recorded: does not affect

## CC(=O)N(C(=O)OC(C)(C)C)N(C(C)=O)C(=O)c1ccc(N2C(=O)C=CC2=O)cc1 [Compound 11, N,N′-diacetyl-N′-[4-(2,5-dioxo-2,5-dihydro-pyrrol-1-yl)-benzoyl]-hydrazinecarboxylic acid tert-butyl ester]
[3]
  LPS-activated NFκB signaling pathway (ratio p-IkB/IkB): efficient to inhibit

## Cl.NNC(=O)c1ccc(N2C(=O)C=CC2=O)cc1 [Compound 5, 4-(2,5-dioxo-2,5-dihydro-pyrrol-1-yl)-benzoic acid hydrazide hydrochloride]
[8]
  combined IFNγ/TNFα-induced NO synthesis: efficiently inhibited
[9]
  IFNγ-induced STAT1 activation (ratio of phosphorylated/no phosphorylated proteins): decreased; also recorded: efficiently inhibited
[10]
  IFNγ-induced MHC-II expression: effective in reducing; also recorded: efficiently inhibited
[11]
  IFNγ-induced CD40 expression: effective in reducing; also recorded: efficiently inhibited
[12]
  combined IFNγ/TNFα-induced NO synthesis: effective in reducing; also recorded: efficiently inhibited
[13]
  IL6-induced STAT3 activation (ratio of phosphorylated/no phosphorylated proteins): decreased; also recorded: efficiently inhibited
